Read-outs that look alike come from different tables or passages of the source. Values belong to the molecule of their own block, whether it stands above or below them.
What was measured:
Type in all cases: cell-based
[1] = system: HL-60 (human promyelocytic leukemia cells); assay: MTT inhibition of tumor cell growth, HL-60; settings: Homo sapiens
Experimental: (§1) 1. Inoculating cells: the culture medium DMEM or RMPI1640 containing 10% fetal bovine serum was used to prepare a single cell suspension, and the cell suspension was inoculated to a 96-well plate at 5000-10000 cells per well (100 μl for each well); Adherent cells were inoculated and cultured for 12 h in advance. HL-60 (human promyelocytic leukemia cells), SMMC-7721 (human hepatoma cells), A-549 (Human lung adenocarcinoma cells), MCF-7 (human breast cancer cells), SW-480 (human colon cancer cells) were purchased from the Cell Bank of the Chinese Academy of Sciences, Shanghai.
(§2) 2. The solution of the compound to be tested (40 μM for primary screening; 5 concentrations were set for gradient re-screening for the compounds which achieve about 50% inhibition of tumor cell growth at 40 μM) was added, the final volume of each well was 200 μl, and triplicate wells were set for each test.
(§3) 3. Coloration: After culturing at 37° C. for 48 h, MTT solution (20 μl) was added to each well. After incubation for another 4 h, the culture was stopped. The supernatant in each well was pipetted and discarded, and 200 μl SDS solution (10%) was added to each well. Incubation was performed overnight (at 37° C.), to completely dissolve the crystal.
(§4) 4. Colorimetric assay: ELISA Reader (Bio-Rad 680) was used to obtain the light absorption for each well at a wavelength of 595 nm, the results were recorded. A cell growth curve was plotted with the concentration as abscissa and the cell survival percentage as ordinate. The two-point method (Reed and Muench method) was used to calculate the IC50 of the compound.

[2] = system: SMMC-7721 (human hepatoma cells); assay: MTT inhibition of tumor cell growth, SMMC-7721; settings: Homo sapiens
Experimental: as §1, §2, §3, §4

[3] = system: A-549 (Human lung adenocarcinoma cells); assay: MTT inhibition of tumor cell growth, A-549; settings: Homo sapiens
Experimental: as §1, §2, §3, §4

[4] = system: MCF-7 (human breast cancer cells); assay: MTT inhibition of tumor cell growth, MCF-7; settings: Homo sapiens
Experimental: as §1, §2, §3, §4

[5] = system: SW-480 (human colon cancer cells); assay: MTT inhibition of tumor cell growth, SW-480; settings: Homo sapiens
Experimental: as §1, §2, §3, §4

[6] = system: Wnt signaling pathway (Top-Flash reporter gene); assay: Top-Flash Wnt reporter gene assay in HEK293T cells with Wnt3a conditioned medium; settings: Homo sapiens, HEK-293T, 6 h, 6 h
Experimental: HEK293T cells were cultured in DMEM containing 10% fetal bovine serum (Invitrogen) at 37° C., 5% CO2. The cells were passaged every other day. The density was retained at 70˜80% during passage. L cell line (CRL-2647, purchased from the gene bank of ATCC, the US) and the control cell line (CRL-2648, purchased from ATCC, US), which stably secreted mouse Wnt3a protein, were cultured in DMEM containing 50 ug/ml G418 and 10% fetal bovine serum, at 37° C., 5% CO2. When the cells grew to a density of about 70%, the medium was replaced with DMEM containing 10% fetal bovine serum. After continuous culture for 4 days, the culture was collected and centrifuged, and the supernatant was kept so that the Wnt conditioned medium was obtained. After titration assay, the conditioned medium was quick-frozen in liquid nitrogen, and placed at −80° C. for long-term storage, so that the titer was kept unchanged.
The cells were seeded to a 48-well plate at a density of […] cells per well, and transfected 20 h later. The reagents for plasmid transfection were calculated based on the amount in each well of the 48-well plate as following: the total amount of plasmid was 125 ng/well; the plasmid was first added to a serum-free medium (25 μL/well) and mixed well; PLUS reagent (Invitrogen) was then added in an amount of 0.5 μL/well and mixed well, then stood for 15 min; Lipofectamine (Invitrogen) liposome was added in an amount of 0.5 μL/well to serum-free DMEM medium (25 μL/well), and then mixed with the solution containing the plasmid and the PLUS, and stood for 15 min. The cells were cultured in serum-free DMEM medium (100 μL/well), and the final mixture of plasmid, PLUS and Lipofectamine were added to the cells. After incubation for 3 h, the transfection was stopped by the medium containing 10% fetal bovine serum (200 μL/well).
The HEK293T cells used for activity assay of the report gene were transfected by the method as shown in 2). Activity assay of Wnt reporter gene: the amount of plasmid for transfection was 5 ng/well for TOP-flash and 5 ng/well for GFP plasmid as internal standard, with lacZ added to reach a total amount of 125 ng/well. […] After treating for 6 h, Boehringer Mannheim Luci-ferase Assay Kit was used to lyse cells (200 μL/well). 50 μL from each well was pipetted into a 96-well plate. The indensity of GFP protein in the cell lysate was measured by fluorimeter FL600 (BIO-TEK Inc. Winooski, Vt.), and taken as internal standard for cell transfection efficiency. 10 μL substrate of luciferase was then added to each well, and the activity of luciferase was measured by Micro Lumate Plus (Perkin Elmer Inc. Wellesley, Mass.) luminometer. Finally, GFP indensity was used as internal standard to calibrate the activity of luciferase, i.e. the activity of Wnt reporter gene.
Calculation of IC50 (taking the calculation of IC50 of the Wnt signaling pathway for example): background (the activity as measured in the groups treated with a conditioned medium containing DMSO only) was subtracted from the reporter gene activity as measured in the groups treated by Wnt3a conditioned medium with or without the compound to be tested at different concentrations; and the obtained value was defined as the activity of the reporter gene induced by Wnt or the residual activity of the reporter gene after adding the compound to be tested. The residual activity was normalized by the activity induced by Wnt to get the relative residual activity. Then combine with the concentrations of the compound to be tested to plot a linear graph, and a dose-effect curve was fitted based on 4-parameter logistic fit. IC50 of the Wnt signaling pathway is determined as the concentration at which the relative residual activity is 0.5.

[7] = SW480, 48 h, Table 6, 7-carbonyl derivatives, read-out: IC50 SW-480, 7-carbonyl derivatives
[8] = Table 8, HEK293T, Wnt3a conditioned medium, read-out: IC50 (μM), inhibitory activity on the Wnt signaling pathway
[9] = Table 7 (second), derivatives modified on 7-hydroxyl of S-3, HEK293T, Wnt3a conditioned medium, read-out: IC50 (μM), inhibitory activity on the Wnt signaling pathway

Structure (SMILES): C=C1C(=O)C23CC[C@H]1CC2[C@]1(COC(C)=O)CCC[C@@](C)(COC(=O)c2cccs2)C1CC3=O (stereo partly shown) [Compound 66]
- IC50 ([1]; HL-60, 48 h, Table 4, derivatives obtained by reduction of the lactonic ring): 0.71 µM
- IC50 ([2]; SMMC-7721, 48 h, Table 4, derivatives obtained by reduction of the lactonic ring): 0.57 µM
- IC50 ([3]; A549, 48 h, Table 4, derivatives obtained by reduction of the lactonic ring): 0.8 µM
- IC50 ([4]; MCF7, 48 h, Table 4, derivatives obtained by reduction of the lactonic ring): 0.89 µM
- IC50 ([5]; SW480, 48 h, Table 4, derivatives obtained by reduction of the lactonic ring, read-out: IC50 SW-480): 760 nM
- IC50 [5, 7]: 700 nM
- IC50 [6, 8]: 8.39 ± 0.63 µM

Structure (SMILES): C=C1C(=O)[C@]23CC[C@H]1CC2[C@@]12CCC[C@@](C)(CN(CCO)C1)C2CC3=O (stereo partly shown) [Compound 91]
- IC50 ([1]; HL-60, Table 7 (first), alkaloid derivatives, 48 h): 14.3 µM
- IC50 ([2]; SMMC-7721, Table 7 (first), alkaloid derivatives, 48 h): 15.2 µM
- IC50 ([3]; A549, Table 7 (first), alkaloid derivatives, 48 h): 9.24 µM
- IC50 ([4]; MCF7, Table 7 (first), alkaloid derivatives, 48 h): 15.7 µM
- IC50 ([5]; SW480, Table 7 (first), alkaloid derivatives, 48 h, read-out: IC50 SW-480): 11800 nM
- IC50 ([6]; read-out: IC50 (μM), inhibitory activity on the Wnt signaling pathway): 49.4 ± 1.42 µM

Structure (SMILES): C=C1C(=O)[C@]23CC[C@H]1CC2[C@@]12CCC[C@@](C)(COC1=O)C2C[C@@H]3S(=O)(=O)c1ccccc1[N+](=O)[O-] (stereo partly shown) [Compound 1v]
- IC50 ([1]; HL-60, 48 h, Table 1, 7-hydroxy derivatives of S-3): 9.64 µM
- IC50 ([2]; SMMC-7721, 48 h, Table 1, 7-hydroxy derivatives of S-3): 26.9 µM
- IC50 ([3]; A549, 48 h, Table 1, 7-hydroxy derivatives of S-3): 16.6 µM
- IC50 ([4]; MCF7, 48 h, Table 1, 7-hydroxy derivatives of S-3): 11.1 µM
- IC50 ([5]; SW480, 48 h, Table 1, 7-hydroxy derivatives of S-3, read-out: IC50 SW-480): 14600 nM
- IC50 [6, 9]: > 60 µM

Now from value to molecule:

- IC50 ([1]; HL-60, 48 h, Table 5, derivatives having double Michael reaction acceptor): 0.68 µM
- IC50 ([2]; SMMC-7721, 48 h, Table 5, derivatives having double Michael reaction acceptor): 0.16 µM
- IC50 ([3]; A549, 48 h, Table 5, derivatives having double Michael reaction acceptor): 0.58 µM
- IC50 ([4]; MCF7, 48 h, Table 5, derivatives having double Michael reaction acceptor): 0.78 µM
- IC50 ([5]; SW480, 48 h, Table 5, derivatives having double Michael reaction acceptor, read-out: IC50 SW-480): 590 nM
- IC50 ([5]; SW480, 48 h, Table 6, double Michael reaction acceptor derivatives, read-out: IC50 SW-480, derivatives having double Michael reaction acceptor): 340 nM
- IC50 ([6]; Table 9, HEK293T, Wnt3a conditioned medium, read-out: IC50(μM), inhibitory activity on the Wnt signaling pathway): 12.8 ± 0.13 µM
Structure (SMILES): C=C1C(=O)C23CC[C@@H](CC2[C@@]24CCC[C@@](C)(COS(=O)OC2)C14)C(=C)C3=O (stereo partly shown) [Compound 43]

- IC50 ([1]; HL-60, 48 h, Table 2, derivatives having potential Michael reaction acceptor): 4.56 µM
- IC50 ([2]; SMMC-7721, 48 h, Table 2, derivatives having potential Michael reaction acceptor): 4.72 µM
- IC50 ([3]; A549, 48 h, Table 2, derivatives having potential Michael reaction acceptor): 3.16 µM
- IC50 ([4]; MCF7, 48 h, Table 2, derivatives having potential Michael reaction acceptor): 4.61 µM
- IC50 ([5]; SW480, 48 h, Table 2, derivatives having potential Michael reaction acceptor, read-out: IC50 SW-480): 3740 nM
- IC50 [5, 7]: 2630 nM
- IC50 [6, 9]: 12.1 ± 1.88 µM
- IC50 [6, 8]: 12.1 µM
Structure (SMILES): C=C1C(=O)[C@]23CC[C@H]1CC2[C@@]12CCC[C@@](C)(COC1=O)C2CC3=O (stereo partly shown) [Compound 7]

- IC50 ([1]; HL-60, 48 h, Table 3, single Michael reaction acceptor, modified lactonic ring): 28.8 µM
- IC50 ([2]; SMMC-7721, 48 h, Table 3, single Michael reaction acceptor, modified lactonic ring): 34.8 µM
- IC50 ([3]; A549, 48 h, Table 3, single Michael reaction acceptor, modified lactonic ring): 17.5 µM
- IC50 ([4]; MCF7, 48 h, Table 3, single Michael reaction acceptor, modified lactonic ring): 21.5 µM
- IC50 ([5]; SW480, 48 h, Table 3, single Michael reaction acceptor, modified lactonic ring, read-out: IC50 SW-480): 20700 nM
- IC50 [6, 8]: > 60 µM
Structure (SMILES): C=C1C(=O)C23CC[C@H]1CC2[C@@]12CCC[C@@](C)(C(=O)OC1=O)C2CC3=O (stereo partly shown) [Compound 39]
